The results in this text go back to US9896441B2 (Lycera Corporation, priority 2014, dated 2018).

The term EC50 denotes the concentration giving half of the maximal effect. A lower EC50 goes with an effect from little substance.

Bounds are passed on as bounds.

In test [1] the target is T1, Gal4-RORγ-LBD (Homo sapiens, UniProt P51449).
T1 construct: expressed in transfected cells
T1 sequence (P51449 269-508 limits assumed): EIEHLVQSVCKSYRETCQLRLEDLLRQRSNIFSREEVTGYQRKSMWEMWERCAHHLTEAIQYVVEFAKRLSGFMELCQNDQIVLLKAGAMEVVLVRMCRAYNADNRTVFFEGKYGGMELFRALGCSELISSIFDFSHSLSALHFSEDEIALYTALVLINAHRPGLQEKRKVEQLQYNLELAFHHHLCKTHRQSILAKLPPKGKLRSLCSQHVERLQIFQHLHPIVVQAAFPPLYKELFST
The test can be described thus: Gal4-RORγ Luciferase Reporter Assay in HEK-293T Cells. It counts as cell-based. To be noted: HEK-293 cells. The essentials:
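HEK-293 cells were co-transfected with Gal4-RORγ-LBD and a Gal4-luciferase reporter, then exposed overnight at 37 °C to compounds with […] ursolic acid present (0.2% DMSO). Luminescence was read with One-Glo after 10 min at RT, untreated signal was set as 100, and Max Response was taken as the upper plateau of a 4-parameter logistic fit.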
(In general: In a reporter assay the amount or activity of a reporter protein is the signal.)

Test [2] addresses T2, RORγ-LBD (Homo sapiens, UniProt P51449).
T2 construct: made in house; host or cells: SF9 cells (baculovirus); used as diluted lysate
T2 sequence (P51449 269-508 limits assumed): T1 sequence (P51449 269-508 limits assumed)
The test can be described thus: RORγ-Ligand Binding Domain (LBD) TR-FRET Assay. The format is biochemical. The gist of the method:
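His-tagged RORγ-LBD from SF9 baculovirus lysate, ~3 nM final, in 50 mM Tris pH 7.0, 50 mM KCl, 1 mM EDTA, 0.1 mM DTT, 0.01% BSA. Biotinylated SRC1 LXXLL peptide at 200 nM final with 2 μM ursolic acid; TR-FRET read-out, 1% DMSO final.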

The mark [3] stands for this setting: luciferase reporter, with ursolic acid.
Setting [4] is: ursolic acid present, luciferase readout.
Where [5] appears, read: with 2 μM ursolic acid (RORγ antagonist), highest test concentration 10 μM.

`CC(C)Oc1ncc(C(F)(F)F)cc1S(=O)(=O)N1C[C@H](CCC(=O)O)Oc2ccc(/C=C/c3c(F)cccc3Cl)cc21` [Example 89FK, (S,E)-3-(6-(2-chloro-6-fluorostyryl)-4-((2-isopropoxy-5-(trifluoromethyl)pyridin-3-yl)sulfonyl)-3,4-dihydro-2H-benzo[b][1,4]oxazin-2-yl)propanoic acid]: the 50% effective concentration (EC50) in test [1] (setting [3]) was more than 10 µM; in test [2] (RORγ-LBD TR-FRET), less than 0.5 µM.

Consider `C[C@H](O)COc1ncc(C(F)(F)F)cc1S(=O)(=O)N1C[C@H](CCC(=O)O)Oc2ccc(/C=C/c3c(F)cccc3Cl)cc21` [Example 89FM, 3-((S)-6-((E)-2-chloro-6-fluorostyryl)-4-((2-((S)-2-hydroxypropoxy)-5-(trifluoromethyl)pyridin-3-yl)sulfonyl)-3,4-dihydro-2H-benzo[b][1,4]oxazin-2-yl)propanoic acid], for which the concentration giving a half-maximal response (EC50) in test [1] (setting [3]) was 0.5 to 5 µM; in test [2] (RORγ-LBD TR-FRET) it was less than 0.5 µM.

For `COC(=O)CC[C@H]1CN(S(=O)(=O)c2cc(C(F)(F)F)cnc2OC[C@H](C)O)c2cc(/C=C/c3c(F)cccc3Cl)ccc2O1` [Example 89FN, methyl 3-((S)-6-((E)-2-chloro-6-fluorostyryl)-4-((2-((S)-2-hydroxypropoxy)-5-(trifluoromethyl)pyridin-3-yl)sulfonyl)-3,4-dihydro-2H-benzo[b][1,4]oxazin-2-yl)propanoate], the concentration giving a half-maximal response (EC50) in test [1] (setting [3]) was 0.5 to 5 µM; in test [2] (RORγ-LBD TR-FRET) it was less than 0.5 µM.

With `O=C(O)CC[C@H]1CN(S(=O)(=O)c2cc(C3CC3)cnc2OCCO)c2cc(/C=C/c3c(F)cccc3Cl)ccc2O1` [Example 89FO, (S,E)-3-(6-(2-chloro-6-fluorostyryl)-4-((5-cyclopropyl-2-(2-hydroxyethoxy)pyridin-3-yl)sulfonyl)-3,4-dihydro-2H-benzo[b][1,4]oxazin-2-yl)propanoic acid], the concentration for a half-maximal effect (EC50) in test [1] (setting [4]) and in test [2] (setting [5]) was less than 0.5 µM each time.

For the molecule `COC(=O)CC[C@H]1CN(S(=O)(=O)c2cc(C3CC3)cnc2OCCO)c2cc(/C=C/c3c(F)cccc3Cl)ccc2O1` [Example 89FP, methyl (S,E)-3-(6-(2-chloro-6-fluorostyryl)-4-((5-cyclopropyl-2-(2-hydroxyethoxy)pyridin-3-yl)sulfonyl)-3,4-dihydro-2H-benzo[b][1,4]oxazin-2-yl)propanoate], the 50% effective concentration (EC50) in test [1] (setting [4]) and in test [2] (setting [5]) was less than 0.5 µM each time.

As for `O=C(O)CC[C@H]1CN(S(=O)(=O)c2cccc(OC(F)F)c2)c2cc(/C=C/c3ncccn3)ccc2O1` [Example 89G, (S,E)-3-(4-((3-(difluoromethoxy)-phenyl)sulfonyl)-6-(2-(pyrimidin-2-yl)vinyl)-3,4-dihydro-2H-benzo[b][1,4]oxazin-2-yl)propanoic acid], the EC50 in test [1] (setting [3]) was more than 10 µM; in test [2] (RORγ-LBD TR-FRET), 0.5 to 5 µM.

As for `COC(=O)CC[C@H]1CN(S(=O)(=O)c2cccc(OC(F)F)c2)c2cc(/C=C/c3ncccn3)ccc2O1` [Example 89H, (S,E)-methyl 3-(4-((3-(difluoromethoxy)-phenyl)sulfonyl)-6-(2-(pyrimidin-2-yl)vinyl)-3,4-dihydro-2H-benzo[b][1,4]oxazin-2-yl)propanoate], the EC50 was more than 10 µM in test [1] (setting [3]) and less than 0.5 µM in test [2] (RORγ-LBD TR-FRET).

Turning to `CCOc1nn(CC)cc1S(=O)(=O)N1C[C@H](CCC(=O)O)Oc2ccc(/C=C/c3cccnc3)cc21` [Example 89I, (S,E)-3-(4-((3-ethoxy-1-ethyl-1H-pyrazol-4-yl)sulfonyl)-6-(2-(pyridin-3-yl)vinyl)-3,4-dihydro-2H-benzo[b][1,4]oxazin-2-yl)propanoic acid], the concentration giving a half-maximal response (EC50) in test [1] (setting [3]) and in test [2] (RORγ-LBD TR-FRET) was more than 10 µM in each case.

As for `CCOc1nn(CC)cc1S(=O)(=O)N1C[C@H](CCC(=O)OC)Oc2ccc(/C=C/c3cccnc3)cc21` [Example 89J, (S,E)-methyl 3-(4-((3-ethoxy-1-ethyl-1H-pyrazol-4-yl)sulfonyl)-6-(2-(pyridin-3-yl)vinyl)-3,4-dihydro-2H-benzo[b][1,4]oxazin-2-yl)propanoate], the EC50 is more than 10 µM in test [1] (setting [3]) and 0.5 to 5 µM in test [2] (RORγ-LBD TR-FRET).

As for `CCOc1nn(CC)cc1S(=O)(=O)N1C[C@H](CCC(=O)O)Oc2ccc(/C=C/c3ccsc3)cc21` [Example 89K, (S,E)-3-(4-((3-ethoxy-1-ethyl-1H-pyrazol-4-yl)sulfonyl)-6-(2-(thiophen-3-yl)vinyl)-3,4-dihydro-2H-benzo[b][1,4]oxazin-2-yl)propanoic acid], the EC50 in test [1] (setting [3]) was 0.5 to 5 µM; in test [2] (RORγ-LBD TR-FRET) it was less than 0.5 µM.

`CCOc1nn(CC)cc1S(=O)(=O)N1C[C@H](CCC(=O)OC)Oc2ccc(/C=C/c3ccsc3)cc21` [Example 89L, (S,E)-methyl 3-(4-((3-ethoxy-1-ethyl-1H-pyrazol-4-yl)sulfonyl)-6-(2-(thiophen-3-yl)vinyl)-3,4-dihydro-2H-benzo[b][1,4]oxazin-2-yl)propanoate]: the concentration giving a half-maximal response (EC50) in test [1] (setting [3]) was 0.5 to 5 µM; in test [2] (RORγ-LBD TR-FRET), less than 0.5 µM.

Regarding `CCOc1nn(CC)cc1S(=O)(=O)N1C[C@H](CCC(=O)O)Oc2ccc(/C=C/c3nccnc3Cl)cc21` [Example 89M, (S,E)-3-(6-(2-(3-chloropyrazin-2-yl)vinyl)-4-((3-ethoxy-1-ethyl-1H-pyrazol-4-yl)sulfonyl)-3,4-dihydro-2H-benzo[b][1,4]oxazin-2-yl)propanoic acid], the EC50 in test [1] (setting [3]) and in test [2] (RORγ-LBD TR-FRET) was more than 10 µM in each case.

`CCOc1nn(CC)cc1S(=O)(=O)N1C[C@H](CCC(=O)OC)Oc2ccc(/C=C/c3nccnc3Cl)cc21` [Example 89N, (S,E)-methyl 3-(6-(2-(3-chloropyrazin-2-yl)vinyl)-4-((3-ethoxy-1-ethyl-1H-pyrazol-4-yl)sulfonyl)-3,4-dihydro-2H-benzo[b][1,4]oxazin-2-yl)propanoate]: the results for the 50% effective concentration (EC50) in test [1] (setting [3]) and in test [2] (RORγ-LBD TR-FRET) were more than 10 µM and 5 to 10 µM, respectively.

As for `CCOc1nn(CC)cc1S(=O)(=O)N1C[C@H](CCC(=O)O)Oc2ccc(/C=C/c3cccs3)cc21` [Example 89O, (S,E)-3-(4-((3-ethoxy-1-ethyl-1H-pyrazol-4-yl)sulfonyl)-6-(2-(thiophen-2-yl)vinyl)-3,4-dihydro-2H-benzo[b][1,4]oxazin-2-yl)propanoic acid], the results for the EC50 in test [1] (setting [3]) and in test [2] (RORγ-LBD TR-FRET) were more than 10 µM and less than 0.5 µM, respectively.

As for `CCOc1nn(CC)cc1S(=O)(=O)N1C[C@H](CCC(=O)OC)Oc2ccc(/C=C/c3cccs3)cc21` [Example 89P, (S,E)-methyl 3-(4-((3-ethoxy-1-ethyl-1H-pyrazol-4-yl)sulfonyl)-6-(2-(thiophen-2-yl)vinyl)-3,4-dihydro-2H-benzo[b][1,4]oxazin-2-yl)propanoate], the figures for the concentration for a half-maximal effect (EC50) in test [1] (setting [3]) and in test [2] (RORγ-LBD TR-FRET) were more than 10 µM and 0.5 to 5 µM, respectively.

With `CCOc1nn(CC)cc1S(=O)(=O)N1C[C@H](CCC(=O)O)Oc2ccc(/C=C/c3nccs3)cc21` [Example 89Q, (S,E)-3-(4-((3-ethoxy-1-ethyl-1H-pyrazol-4-yl)sulfonyl)-6-(2-(thiazol-2-yl)vinyl)-3,4-dihydro-2H-benzo[b][1,4]oxazin-2-yl)propanoic acid], the EC50 in test [1] (setting [3]) and in test [2] (RORγ-LBD TR-FRET) was more than 10 µM throughout.

For `CCOc1nn(CC)cc1S(=O)(=O)N1C[C@H](CCC(=O)OC)Oc2ccc(/C=C/c3nccs3)cc21` [Example 89R, (S,E)-methyl 3-(4-((3-ethoxy-1-ethyl-1H-pyrazol-4-yl)sulfonyl)-6-(2-(thiazol-2-yl)vinyl)-3,4-dihydro-2H-benzo[b][1,4]oxazin-2-yl)propanoate], the 50% effective concentration (EC50) in test [1] (setting [3]) is more than 10 µM; in test [2] (RORγ-LBD TR-FRET), 5 to 10 µM.
